Laboratory results from patent publication US7879808B2, “Lincomycin derivatives and antimicrobial agents comprising the same as active ingredient” (Meiji Seika Kaisha, Ltd., priority 2007, dated 2011).
Values after ≈ are worked out from the molar mass of the structure shown.

Tests used:
Type in all cases: cell-based
S. pneumoniae MSC07571 = experiment: MIC against S. pneumoniae MSC07571 (CLSI M7-A7 agar method); conditions: Sensitivity disk agar-N+5% horse aseptic defibranated blood, about 10^4 CFU/ml; for MIC: Streptococcus pneumoniae, read-out: minimal inhibitory concentration (MIC)
Procedure: (§1) For representative compounds among lincomycin derivatives according to the present invention, the minimal inhibitory concentration (MIC, […]) against various pneumococci was measured according to the method described in Clinical and Laboratory Standards Institute, M7-A7, 2006. Sensitivity disk agar-N+5% horse aseptic defibranated blood was used as the medium for the measurement. The amount of bacteria inoculated was about 10^4 CFU/ml.

S. pneumoniae MSC07337 = experiment: MIC against S. pneumoniae MSC07337 (CLSI M7-A7 agar method); parameters: unit not given here; conditions: Sensitivity disk agar-N+5% horse aseptic defibranated blood, about 10^4 CFU/ml
Procedure: as §1

S. pneumoniae MSC07465 = experiment: MIC against S. pneumoniae MSC07465 (CLSI M7-A7 agar method); parameters: unit not given here; conditions: Sensitivity disk agar-N+5% horse aseptic defibranated blood, about 10^4 CFU/ml
Procedure: as §1

S. pneumoniae MSC07471 = experiment: MIC against S. pneumoniae MSC07471 (CLSI M7-A7 agar method); parameters: unit not given here; conditions: Sensitivity disk agar-N+5% horse aseptic defibranated blood, about 10^4 CFU/ml
Procedure: as §1

S. pneumoniae MSC07365 = experiment: MIC against S. pneumoniae MSC07365 (CLSI M7-A7 agar method); parameters: unit not given here; conditions: Sensitivity disk agar-N+5% horse aseptic defibranated blood, about 10^4 CFU/ml
Procedure: as §1

S. pneumoniae MSC10197 = experiment: MIC against S. pneumoniae MSC10197 (CLSI M7-A7 agar method); parameters: unit not given here; conditions: Sensitivity disk agar-N+5% horse aseptic defibranated blood, about 10^4 CFU/ml
Procedure: as §1

S. pneumoniae MSC17994 = experiment: MIC against S. pneumoniae MSC17994 (CLSI M7-A7 agar method); parameters: unit not given here; conditions: Sensitivity disk agar-N+5% horse aseptic defibranated blood, about 10^4 CFU/ml
Procedure: as §1

MIC (S. pneumoniae MSC07571) [µg/mL]	SMILES	minimal inhibitory concentration (MIC) (S. pneumoniae MSC07337)	minimal inhibitory concentration (MIC) (S. pneumoniae MSC07465)	minimal inhibitory concentration (MIC) (S. pneumoniae MSC07471)	minimal inhibitory concentration (MIC) (S. pneumoniae MSC07365)	minimal inhibitory concentration (MIC) (S. pneumoniae MSC10197)	minimal inhibitory concentration (MIC) (S. pneumoniae MSC17994)	minimal inhibitory concentration (MIC) (S. pneumoniae MSC07571) [µg/mL]
60 (≈ 95.7 µM)	CCC[C@@H]1C[C@@H](C(=O)NC(C2OC(SC)C(O)C(O)C2O)[C@H](C)Sc2ccc(CCN(C)CCN(C)C)cc2)N(C)C1 (stereo partly shown) [Compound 10, 7-Deoxy-7-(4-(2-((2-(dimethylamino)ethyl)-(methyl)amino)ethyl)-phenylthio)-7-epilincomycin]							
	CSC1OC(C(NC(=O)[C@@H]2C[C@H](CC3CC3)CCN2C)C(C)Sc2ccc(CCN(C)C3CC3)cc2)C(O)C(O)C1O (stereo partly drawn) [Compound 54, Methyl 7-(4-(2-(cyclopropyl(methyl)-amino)ethyl)phenyl-thio)-6-N-((2S,4R)-4-(cyclopropylmethyl)-1-methylpiperidine-2-carbonyl)-7-deoxy-7-epi-1-thio-α-lincosamide]	2	0.015	2	4	0.03	0.06	30 (≈ 48.2 µM)
	CSC1OC(C(NC(=O)[C@@H]2C[C@H](CC3CC3)CCN2C)C(C)Sc2ccc(CCN(C)C)nc2)C(O)C(O)C1O (stereo partly drawn) [Compound 52, Methyl 6-N-((2S,4R)-(4-cyclopropylmethyl-1-methyl)piperidine-2-carbonyl)-7-deoxy-7-(6-(2-(dimethylamino)ethyl)-pyridin-3-ylthio)-7-epi-1-thio-α-lincosamide]	32	0.25	32	64	0.25	0.25	250 (≈ 419 µM)
15 (≈ 26.3 µM)	CCC[C@@H]1C[C@@H](C(=O)NC(C2OC(SC)C(O)C(O)C2O)[C@H](C)Sc2ccc(CCN(C)C)cc2)N(C)C1 (stereo partly shown) [Compound 1, 7-Deoxy-7-(4-(2-(dimethylamino)ethyl)phenylthio)-7-epilincomycin]							
